Assay results published in publication PMC5602572, “New carboxamide derivatives bearing benzenesulphonamide as a selective COX-II inhibitor: Design, synthesis and structure-activity relationship” (PLoS ONE, 2017).
Read-outs that look alike come from different tables or passages of the source.

How the values were obtained:
[1] = Determination of LD50 in mice; settings: mouse, in vivo, ip; male mice, intraperitoneal, observation 72 h
Protocol: Male mice were divided into various groups and test compounds were administered in various doses intraperitoneally. […] All behavioral changes and deaths during the observation periods were recorded. The percentage of death at each dose level was then calculated, converted to probits and the LD50 (μM/kg) values were calculated. To observe the health status of the mice, they were monitored 4 times a day. […] For the purpose of ameliorating the suffering of the dying mice, CO2 euthanasia was applied. All the dead mice were disposed in bio-safety containers in accordance with local standard protocols. The mortality rate in each group was calculated according to the formula: Mortality rate(%)=(the number of dead mice/the number of mice in the group)×100.

COX-1 = molecular target: T1, COX-1 (Ovis aries, UniProt P05979); assay: In vitro cyclooxygenase inhibitory assay (Cayman colorimetric COX (ovine) inhibitor screening kit), COX-1; format: biochemical; settings: read-out: COX-1 (%) inhibition
T1 construct: purchased Cayman chemicals, USA
T1 sequence (P05979 25-600): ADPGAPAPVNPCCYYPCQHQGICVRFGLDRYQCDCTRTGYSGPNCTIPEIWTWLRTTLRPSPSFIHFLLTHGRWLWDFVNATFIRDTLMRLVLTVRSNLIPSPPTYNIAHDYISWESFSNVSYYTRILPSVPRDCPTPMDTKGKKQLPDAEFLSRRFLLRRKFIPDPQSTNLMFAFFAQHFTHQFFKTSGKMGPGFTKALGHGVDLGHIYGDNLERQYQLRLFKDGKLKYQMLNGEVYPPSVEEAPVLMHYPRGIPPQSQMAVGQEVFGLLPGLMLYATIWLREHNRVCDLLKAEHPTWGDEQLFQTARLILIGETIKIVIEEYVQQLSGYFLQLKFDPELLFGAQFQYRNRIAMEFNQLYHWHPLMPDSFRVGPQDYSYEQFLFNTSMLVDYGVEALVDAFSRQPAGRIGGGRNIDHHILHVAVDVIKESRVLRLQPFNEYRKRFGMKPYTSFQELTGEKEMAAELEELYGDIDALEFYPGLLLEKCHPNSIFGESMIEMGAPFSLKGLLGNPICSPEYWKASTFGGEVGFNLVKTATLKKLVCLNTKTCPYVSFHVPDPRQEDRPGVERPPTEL
Protocol: (§1) The calculations were performed as per the kit guidelines.

COX-2 = molecular target: T2, COX-2 (Ovis aries, UniProt P79208); assay: In vitro cyclooxygenase inhibitory assay (Cayman colorimetric COX (ovine) inhibitor screening kit), COX-2; format: biochemical; settings: for inhibition at 2 µM: read-out: COX-2 (%) inhibition; for S I (selectivity COX-2/COX-1): ratio of % inhibition COX-2/COX-1 at 2.0 μM; for selectivity for COX-2 (in words): from COX-2/COX-1 % inhibition at 2.0 μM
T2 construct: purchased Cayman chemicals, USA
T2 sequence (P79208 17-603): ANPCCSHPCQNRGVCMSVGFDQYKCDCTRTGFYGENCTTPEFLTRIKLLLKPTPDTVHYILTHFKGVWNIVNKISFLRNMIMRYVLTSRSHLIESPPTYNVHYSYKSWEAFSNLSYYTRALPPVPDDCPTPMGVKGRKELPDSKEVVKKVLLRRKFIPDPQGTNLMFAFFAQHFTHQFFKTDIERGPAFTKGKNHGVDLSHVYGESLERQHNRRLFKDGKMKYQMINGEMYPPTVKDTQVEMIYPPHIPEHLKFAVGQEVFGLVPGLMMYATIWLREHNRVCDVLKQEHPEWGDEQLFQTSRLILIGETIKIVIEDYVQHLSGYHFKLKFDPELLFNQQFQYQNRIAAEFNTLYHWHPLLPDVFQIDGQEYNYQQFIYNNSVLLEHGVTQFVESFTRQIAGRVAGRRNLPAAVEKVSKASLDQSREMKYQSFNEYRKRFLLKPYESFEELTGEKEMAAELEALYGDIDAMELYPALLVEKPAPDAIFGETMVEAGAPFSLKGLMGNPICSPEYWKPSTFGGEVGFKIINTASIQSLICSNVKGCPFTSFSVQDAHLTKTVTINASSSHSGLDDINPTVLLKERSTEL
Protocol: as §1

[2] = test system: carrageenan induced rat paw edema; assay: carrageenan-induced rat paw edema bioassay; format: in vivo; settings: % inhibition of carrageenan induced rat paw edema, intraperitoneal; for Anti-inflammatory activity, 0.5 h (%): 0.5 h after treatment; for Anti-inflammatory activity, 1 h (%): 1 h after treatment; for Anti-inflammatory activity, 2 h (%): 2 h after treatment; for Anti-inflammatory activity, 3 h (%): 3 h after treatment
Protocol: Male albino rats weighing 300 g where purchased from the Department of Zoology and Environmental Biology, University of Nigeria, Nsukka and kept at room temperature in a light controlled animal house. They were fasted with free access to water at least 12 h prior to the experiments. […] The positive control received celecoxib while the negative control received only the vehicle. Edema was produced by injecting 0.2 mL of a solution of 1% carrageenan in the hind paw. The rats were injected intraperitoneally with 1 mL suspension in 0.5% methylcellulose of the tested compounds and reference drug. Paw volume was measured by water displacement with a plethysmometer (UGO BASILE) before, 30 min, 1 h, 2 h and 3 h after treatment. The percentage was calculated by the following equation [25].
Anti-inflammatory activity (%) = (1-D/C)[…], where D represents the difference in paw volume before and after drug administration to the rats and C represents the difference of volume in the control groups. The approval for the use of animal was obtained from the University of Nigeria committee on experimental animal use. No sign of death was observed during the experiment.

SMILES	LD50 at 72 h [1]	inhibition at 2 µM (COX-1; concentration of 2.0 μM)	inhibition at 2 µM (COX-2; concentration of 2.0 μM)	S I (selectivity COX-2/COX-1) (COX-2)	Anti-inflammatory activity, 0.5 h (%) [2]	Anti-inflammatory activity, 1 h (%) [2]	Anti-inflammatory activity, 2 h (%) [2]	Anti-inflammatory activity, 3 h (%) [2]	selectivity for COX-2 (in words) (COX-2)	inhibition at 2 µM (COX-1)	inhibition at 2 µM (COX-2)
Cc1ccc(S(=O)(=O)N(C(=O)c2ccccc2)[C@@H](Cc2ccccc2)C(=O)Nc2cc(C)ccn2)cc1 [Compound 7j, (2S)-2-[N-(4-methylbenzenesulfonyl)-1-phenylformamido]-N-(4-methylpyridin-2-yl)-3-phenyl propanamide]	17.6 µmol/kg	10%	30%	3.00	41.54%	40.59%	39.84%	36.42%	–	–	–
Cc1ccc(S(=O)(=O)N(C(=O)c2ccccc2)[C@@H](Cc2cc3ccccc3[nH]2)C(=O)Nc2cc(C)ccn2)cc1 [Compound 7k, (2S)-3-(1H-indol-2-yl)-2-[N-(4-methylbenzenesulfonyl)-1-phenylformamido]-N-(4-methylpyridin-2-yl)propanamide]	9.2 µmol/kg	3%	56%	18.67	42.12%	56.12%	70.89%	–	–	–	–
Cc1ccc(S(=O)(=O)N(C(=O)c2ccccc2)[C@@H](CC(C)C)C(=O)Nc2cc(C)ccn2)cc1 [Compound 7l, (2S)-4-Methyl-2-[N-(4-methylbenzenesulfonyl)-1-phenylformamido]-N-(4-methylpyridin-2-yl) pentanamide]	12.5 µmol/kg	20%	19%	0.95	26.15%	19.88%	18.28%	16.67%	non-selective	–	–
CCC(C)[C@@H](C(=O)Nc1cc(C)ccn1)N(C(=O)c1ccccc1)S(=O)(=O)c1ccc(C)cc1 (stereo partly drawn) [Compound 7m, (2S)-3-Methyl-2-[N-(4-methylbenzenesulfonyl)-1-phenylformamido]-N-(4-methylpyridin-2-yl) pentanamide]	11.9 µmol/kg	17%	25%	1.47	13.85%	12.35%	8.59%	8.58%	non-selective	–	–
Cc1ccc(S(=O)(=O)N(C(=O)c2ccccc2)[C@H](C(=O)Nc2cc(C)ccn2)C(C)C)cc1 [Compound 7n, (2S)-3-Methyl-2-[N-(4-methylbenzenesulfonyl)-1-phenylformamido]-N-(4-methylpyridin-2-yl) butanamide]	20.1 µmol/kg	32%	48%	1.50	21.54%	16.47%	10.56%	3.09%	non-selective	–	–
Cc1ccc(S(=O)(=O)N2CC(O)C[C@H]2C(=O)Nc2cc(C)ccn2)cc1 (stereo partly drawn) [Compound 7o, (2S)-4-Hydroxy-1-(4-methylbenzenesulfonyl)-N-(4-methylpyridin-2-yl)pyrrolidine-2-carboxamide]	10.1 µmol/kg	–	–	–	21.54%	11.23%	8.78%	5.56%	–	6%	18%
Cc1ccc(S(=O)(=O)N2CCC[C@H]2C(=O)Nc2cc(C)ccn2)cc1 [Compound 7p, (2S)-1-(4-Methylbenzenesulfonyl)-N-(4-methylpyridin-2-yl)pyrrolidine-2-carboxamide]	9.9 µmol/kg	–	–	–	29.15%	28.24%	30.34%	33.26%	–	8%	20%
